Calls of active or inactive are those of the source. The calls are words filed in the database; no cut-off is given here.
How the values were obtained:
[1] = target: T1, Geranylgeranyl pyrophosphate synthase (Homo sapiens, UniProt O95749); test: Inhibition of N-terminal His6 tagged human GGPPS expressed in Escherichia coli BL21(DE3) cells in presence of FPP and [14C]IPP by scintillation counting analysis
T1 sequence (O95749 whole entry): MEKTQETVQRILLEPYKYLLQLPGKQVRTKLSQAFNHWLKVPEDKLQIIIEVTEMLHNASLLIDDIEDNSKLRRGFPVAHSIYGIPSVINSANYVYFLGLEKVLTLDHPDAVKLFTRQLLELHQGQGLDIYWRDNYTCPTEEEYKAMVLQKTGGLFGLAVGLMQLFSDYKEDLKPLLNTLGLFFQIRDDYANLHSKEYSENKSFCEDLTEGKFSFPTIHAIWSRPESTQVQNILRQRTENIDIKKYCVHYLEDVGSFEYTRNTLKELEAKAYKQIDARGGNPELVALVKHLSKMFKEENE

[2] = target: T2, Farnesyl pyrophosphate synthase (Homo sapiens) (UniProt P14324); test: Inhibition of N-terminally His6-tagged recombinant human FPPS expressed in Escherichia coli BL21(DE3) cells using […] and [14C]IPP as substrate at 1 uM preincubated for 10 mins followed by substrate addition by scintillation counting analysis relative to control
T2 sequence (whole entry): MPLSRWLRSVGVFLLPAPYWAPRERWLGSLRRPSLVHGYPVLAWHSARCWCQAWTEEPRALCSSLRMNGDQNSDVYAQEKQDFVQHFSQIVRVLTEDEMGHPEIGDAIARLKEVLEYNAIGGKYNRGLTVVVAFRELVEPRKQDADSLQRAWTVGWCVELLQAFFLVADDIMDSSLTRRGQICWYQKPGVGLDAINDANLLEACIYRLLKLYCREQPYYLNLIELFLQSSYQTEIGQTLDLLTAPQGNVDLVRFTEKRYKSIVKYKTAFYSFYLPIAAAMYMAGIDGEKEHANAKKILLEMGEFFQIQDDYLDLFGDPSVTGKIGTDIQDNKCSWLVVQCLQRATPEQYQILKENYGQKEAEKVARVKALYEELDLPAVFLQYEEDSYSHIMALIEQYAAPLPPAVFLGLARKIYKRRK

[3] = tested on: MIA PaCa-2; test: Antiproliferative activity against human MIA PaCa-2 cells assessed as inhibition of cell growth at 1 uM incubated for 72 hrs by MTS assay; format: functional, cell-based
[4] = tested on: HCT-116; test: Antiproliferative activity against human HCT-116 cells assessed as inhibition of cell growth at 1 uM incubated for 72 hrs by MTS assay; format: functional, cell-based
[5] = tested on: RPMI-8226; test: cells; settings: Homo sapiens, RPMI-8226, 72 h
[6] = Cytotoxicity against Normal human bronchial epithelial cells assessed as inhibition of cell growth incubated for 72 hrs by MTS assay; format: toxicity, cell-based
[7] = Cytotoxicity against human IMR-90 cells assessed as inhibition of cell growth incubated for 72 hrs by MTS assay; format: toxicity, cell-based
[8] = organism: Mus musculus; test: Cytotoxicity against KPC mouse pancreatic cancer organoid ccmT4 at 1 uM incubated for 72 hrs by CellTiter-Glo luminescence based analysis; format: functional, tissue-based
[9] = Cytotoxicity against wild type mouse normal ductal organoid [N(10128)] at 1 uM incubated for 72 hrs by CellTiter-Glo luminescence based analysis; format: toxicity, tissue-based
[10] = tested on: MIA PaCa-2; test: cells; settings: Homo sapiens, MIA PaCa-2, 72 h
[11] = tested on: HCT-116; test: cells; settings: Homo sapiens, HCT-116, 72 h
[12] = Cytotoxicity against wild type mouse normal ductal organoid [N(10128)] at low nM concentrations incubated for 72 hrs by CellTiter-Glo luminescence based analysis; format: toxicity, tissue-based
[13] = Cytotoxicity against Normal human bronchial epithelial cells assessed as inhibition of cell growth at 10 uM incubated for 72 hrs by MTS assay relative to control; format: toxicity, cell-based
[14] = target: T3, Ras-related protein Rap-1A (Homo sapiens) (UniProt P62834); test: Inhibition of RAP-1A prenylation in human MIA PaCa-2 cells incubated for 48 hrs by Western blot analysis; format: cell-based; settings: dose 10-1000 nM
T3 sequence (whole entry): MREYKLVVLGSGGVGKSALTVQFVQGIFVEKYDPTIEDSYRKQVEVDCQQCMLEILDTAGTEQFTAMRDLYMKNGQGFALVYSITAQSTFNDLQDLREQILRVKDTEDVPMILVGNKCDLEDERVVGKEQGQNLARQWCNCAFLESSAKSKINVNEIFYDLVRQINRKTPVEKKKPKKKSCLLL

[15] = target: T3, Ras-related protein Rap-1A (Homo sapiens); test: Inhibition of RAP-1A prenylation in human HCT-116 cells incubated for 48 hrs by Western blot analysis; format: cell-based; settings: dose 10-1000 nM
[16] = tested on: JJN-3; test: Antiproliferative activity against human JJN-3 cells harboring wild type KRAS at 0.1 to 10000 nM incubated for 72 hrs by MTS assay; format: functional, cell-based; settings: dose 0.1-10000 nM
[17] = tested on: KMS-12-PE; test: Antiproliferative activity against human KMS-12-PE cells harboring wild type KRAS at 0.1 to 10000 nM incubated for 72 hrs by MTS assay; format: functional, cell-based; settings: dose 0.1-10000 nM
[18] = tested on: KMS-28PE; test: Antiproliferative activity against human KMS-28-PE cells harboring KRAS G12A mutant at 0.1 to 10000 nM incubated for 72 hrs by MTS assay; format: functional, cell-based; settings: dose 0.1-10000 nM
[19] = tested on: RPMI-8226; test: Antiproliferative activity against human RPMI-8226 cells harboring KRAS G12A mutant at 0.1 to 10000 nM incubated for 72 hrs by MTS assay; format: functional, cell-based; settings: dose 0.1-10000 nM
[20] = tested on: RPMI-8226; test: Induction of ER stress in human RPMI-8226 cells at 1 uM; format: functional, cell-based

Compound | IC50 [1] [µM] | EC50 [5] [µM] | further results
COc1ccc(NC(=O)c2cccc(-c3nc(NC(P(=O)(O)O)P(=O)(O)O)c4cn[nH]c4n3)c2)cc1F | 0.025 | 0.64 | inhibition [2]: 10%; Activity [3]: inactive; Activity [4]: inactive
COc1cccc2c1C(=O)c1c(O)c3c(c(O)c1C2=O)C[C@@](O)(C(=O)CO)C[C@@H]3O[C@H]1C[C@H](N)[C@H](O)[C@H](C)O1 [DOXORUBICIN] |  |  | EC50 at 72 h [6]: 0.45 µM; EC50 at 72 h [7]: 0.36 µM; Activity [8]: Active; Activity [9]: Toxic; EC50 [10]: 0.13 µM; EC50 [11]: 0.041 µM
COc1ccc(NC(=O)c2cccc(-c3nc(NC(P(=O)(O)O)P(=O)(O)O)c4cnn(C(C)C)c4n3)c2)cc1F | 0.041 | > 1 | inhibition [2]: < 10%; Activity [3]: inactive; Activity [4]: inactive
O=C(Nc1ccc(C(F)(F)F)cc1)c1cccc(-c2nc(NC(P(=O)(O)O)P(=O)(O)O)c3ccsc3n2)c1 | 0.012 | 0.16 | 
O=C(Nc1ccc(F)cc1)c1cccc(-c2nc(NC(P(=O)(O)O)P(=O)(O)O)c3cn[nH]c3n2)c1 | 0.039 | > 1 | 
COc1ccc(NC(=O)c2cccc(-c3nc(NC(P(=O)(O)O)P(=O)(O)O)c4cn(C)nc4n3)c2)cc1F | 0.056 | 0.52 | inhibition [2]: 15%
Nc1ccn([C@@H]2O[C@H](CO)[C@@H](O)C2(F)F)c(=O)n1 [GEMCITABINE] |  |  | Activity [12]: Toxic; EC50 [10]: 0.002 µM; EC50 [11]: 0.004 µM
COc1ccc(NC(=O)c2cccc(-c3nc(NC(P(=O)(O)O)P(=O)(O)O)c4ccsc4n3)c2)cc1F |  |  | inhibition at 72 h, 10 µM [13]: ~30%; Activity [8]: Active; Activity [9]: Non-Toxic; inhibition [14]: Dose-Dependent Effect; inhibition [15]: Dose-Dependent Effect; Activity [16]: Active; Activity [17]: Active; Activity [18]: Active; Activity [19]: Active; Activity [20]: Active
CCn1cc2c(NC(P(=O)(O)O)P(=O)(O)O)nc(-c3cccc(C(=O)Nc4ccc(OC)c(F)c4)c3)nc2n1 | 0.067 | 0.552 | 
COc1ccc(NC(=O)c2cccc(-c3nc(NC(P(=O)(O)O)P(=O)(O)O)c4ncn(C)c4n3)c2)cc1F | 0.058 | 0.17 | inhibition [2]: < 10%; Activity [3]: inactive; Activity [4]: inactive
CCn1ncc2c(NC(P(=O)(O)O)P(=O)(O)O)nc(-c3cccc(C(=O)Nc4ccc(OC)c(F)c4)c3)nc21 | 0.04 | > 1 | inhibition [2]: < 10%; Activity [3]: inactive; Activity [4]: inactive
Cn1cnc2c(NC(P(=O)(O)O)P(=O)(O)O)nc(-c3cccc(C(=O)Nc4ccc(C(F)(F)F)cc4)c3)nc21 | 0.013 | 0.51 | 
Cn1cnc2c(NC(P(=O)(O)O)P(=O)(O)O)nc(-c3cccc(C(=O)Nc4ccc(F)cc4)c3)nc21 | 0.041 | 0.67 | 
Cn1ncc2c(NC(P(=O)(O)O)P(=O)(O)O)nc(-c3cccc(C(=O)Nc4ccc(F)cc4)c3)nc21 | 0.031 | 0.44 | 
CC(C)n1ncc2c(NC(P(=O)(O)O)P(=O)(O)O)nc(-c3cccc(C(=O)Nc4ccc(C(F)(F)F)cc4)c3)nc21 | 0.02 | > 1 | 
O=C(Nc1ccc(C(F)(F)F)cc1)c1cccc(-c2nc(NC(P(=O)(O)O)P(=O)(O)O)c3cn[nH]c3n2)c1 | 0.008 | > 1 | 
CCn1ncc2c(NC(P(=O)(O)O)P(=O)(O)O)nc(-c3cccc(C(=O)Nc4ccc(F)cc4)c3)nc21 | 0.029 | > 1 | 
CC(C)n1ncc2c(NC(P(=O)(O)O)P(=O)(O)O)nc(-c3cccc(C(=O)Nc4ccc(F)cc4)c3)nc21 | 0.03 | > 1 | 
CCn1ncc2c(NC(P(=O)(O)O)P(=O)(O)O)nc(-c3cccc(C(=O)Nc4ccc(C(F)(F)F)cc4)c3)nc21 | 0.03 | > 1 | 
COc1ccc(NC(=O)c2cccc(-c3nc(NC(P(=O)(O)O)P(=O)(O)O)c4cnn(C)c4n3)c2)cc1F | 0.048 | 0.15 | inhibition [2]: < 10%; Activity [3]: inactive; Activity [4]: inactive
O=C(Nc1ccc(F)cc1)c1cccc(-c2nc(NC(P(=O)(O)O)P(=O)(O)O)c3ccsc3n2)c1 | 0.018 | 0.12 | 
